One data set in a line: In vitro cytotoxic assay. It counts as cell-based. Conditions: normal peripheral blood mononuclear cells (PBMCs).
In data set [1] the test system is non-small cell lung cancer cells (A-549). As to the kind of experiment: In vitro cytotoxic assay. It counts as cell-based, human. To be noted: for IC50: Homo sapiens, A549, 48 h, read-out: IC50 (mean ± SEM) A-549; for SI (selectivity index) A-549: normal PBMC vs A-549.
Data set [2] has as its system hepatocellular carcinoma (HepG-2). The data set can be described thus: In vitro cytotoxic assay. Conditions: for IC50: Homo sapiens, HepG2, 48 h, read-out: IC50 (mean ± SEM) HepG-2; for SI (selectivity index) HepG-2: normal PBMC vs HepG-2. Type of data set: cell-based, human.
Data set [3] concerns prostate carcinoma (PC-3). The data set can be described thus: In vitro cytotoxic assay. It counts as cell-based, human. Conditions: for IC50: Homo sapiens, 48 h, read-out: IC50 (mean ± SEM) PC-3; for SI (selectivity index) PC-3: normal PBMC vs PC-3.
The test system of data set [4] is breast adenocarcinoma (MCF-7). The data set can be described thus: In vitro cytotoxic assay. It counts as cell-based, human. Conditions: for IC50: Homo sapiens, MCF7, 48 h, read-out: IC50 (mean ± SEM) MCF-7; for SI (selectivity index) MCF-7: normal PBMC vs MCF-7.
For another data set, the target named is EGFR^WT (Homo sapiens, UniProt P00533). The data set can be described thus: HTRF kinase inhibition assay, EGFR^WT.
Another data set deals with p53 ubiquitination. The data set can be described thus: In vivo p53 ubiquitination inhibition of MCF-7 cells. To be noted: Homo sapiens, MCF7, 6 h, read-out: IC50 (mean ± SEM) p53 ubiquitination. Type of data set: cell-based.
The target of the next data set is EGFR^T790M (Homo sapiens, UniProt P00533, T790M). The data set can be described thus: HTRF kinase inhibition assay, EGFR^T790M. In general terms: In TR-FRET formats the signal depends on donor and acceptor labels being close together.

15 compounds from article PMC8892849 (ACS Omega, 2022) can be followed below.

Structures are written as SMILES.

EGFR^WT, sequence (P00533 25-1210): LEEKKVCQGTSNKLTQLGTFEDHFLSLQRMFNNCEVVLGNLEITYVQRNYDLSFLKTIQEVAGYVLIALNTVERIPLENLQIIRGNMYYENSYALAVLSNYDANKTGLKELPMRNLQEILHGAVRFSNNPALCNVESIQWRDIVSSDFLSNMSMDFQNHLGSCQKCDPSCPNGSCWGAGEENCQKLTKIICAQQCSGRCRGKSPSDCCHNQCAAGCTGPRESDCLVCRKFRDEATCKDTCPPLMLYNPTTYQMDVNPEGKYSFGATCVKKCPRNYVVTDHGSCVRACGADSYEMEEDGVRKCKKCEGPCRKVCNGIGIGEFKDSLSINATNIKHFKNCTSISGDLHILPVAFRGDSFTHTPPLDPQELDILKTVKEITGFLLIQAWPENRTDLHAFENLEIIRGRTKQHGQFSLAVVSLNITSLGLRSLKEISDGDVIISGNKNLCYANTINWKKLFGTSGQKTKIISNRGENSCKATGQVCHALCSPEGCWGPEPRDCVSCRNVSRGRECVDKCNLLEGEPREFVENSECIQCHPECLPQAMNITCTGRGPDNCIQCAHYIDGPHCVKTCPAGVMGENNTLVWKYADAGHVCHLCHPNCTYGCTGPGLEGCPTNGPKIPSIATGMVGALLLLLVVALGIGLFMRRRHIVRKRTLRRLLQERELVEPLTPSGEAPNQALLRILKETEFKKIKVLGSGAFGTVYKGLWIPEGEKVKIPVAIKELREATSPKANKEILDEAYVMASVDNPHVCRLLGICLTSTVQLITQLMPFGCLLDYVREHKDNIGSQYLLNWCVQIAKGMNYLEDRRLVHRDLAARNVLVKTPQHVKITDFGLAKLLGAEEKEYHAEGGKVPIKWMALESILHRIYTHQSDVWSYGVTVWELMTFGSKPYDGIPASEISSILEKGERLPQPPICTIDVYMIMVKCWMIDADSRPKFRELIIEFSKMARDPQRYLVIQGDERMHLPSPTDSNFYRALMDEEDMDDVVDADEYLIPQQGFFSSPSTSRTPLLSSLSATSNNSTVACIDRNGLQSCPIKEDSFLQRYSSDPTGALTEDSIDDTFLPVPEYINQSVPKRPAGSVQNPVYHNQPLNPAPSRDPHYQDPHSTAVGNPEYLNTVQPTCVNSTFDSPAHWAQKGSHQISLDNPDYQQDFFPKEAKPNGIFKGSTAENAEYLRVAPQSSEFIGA
EGFR^T790M, sequence (P00533 25-1210 T790M): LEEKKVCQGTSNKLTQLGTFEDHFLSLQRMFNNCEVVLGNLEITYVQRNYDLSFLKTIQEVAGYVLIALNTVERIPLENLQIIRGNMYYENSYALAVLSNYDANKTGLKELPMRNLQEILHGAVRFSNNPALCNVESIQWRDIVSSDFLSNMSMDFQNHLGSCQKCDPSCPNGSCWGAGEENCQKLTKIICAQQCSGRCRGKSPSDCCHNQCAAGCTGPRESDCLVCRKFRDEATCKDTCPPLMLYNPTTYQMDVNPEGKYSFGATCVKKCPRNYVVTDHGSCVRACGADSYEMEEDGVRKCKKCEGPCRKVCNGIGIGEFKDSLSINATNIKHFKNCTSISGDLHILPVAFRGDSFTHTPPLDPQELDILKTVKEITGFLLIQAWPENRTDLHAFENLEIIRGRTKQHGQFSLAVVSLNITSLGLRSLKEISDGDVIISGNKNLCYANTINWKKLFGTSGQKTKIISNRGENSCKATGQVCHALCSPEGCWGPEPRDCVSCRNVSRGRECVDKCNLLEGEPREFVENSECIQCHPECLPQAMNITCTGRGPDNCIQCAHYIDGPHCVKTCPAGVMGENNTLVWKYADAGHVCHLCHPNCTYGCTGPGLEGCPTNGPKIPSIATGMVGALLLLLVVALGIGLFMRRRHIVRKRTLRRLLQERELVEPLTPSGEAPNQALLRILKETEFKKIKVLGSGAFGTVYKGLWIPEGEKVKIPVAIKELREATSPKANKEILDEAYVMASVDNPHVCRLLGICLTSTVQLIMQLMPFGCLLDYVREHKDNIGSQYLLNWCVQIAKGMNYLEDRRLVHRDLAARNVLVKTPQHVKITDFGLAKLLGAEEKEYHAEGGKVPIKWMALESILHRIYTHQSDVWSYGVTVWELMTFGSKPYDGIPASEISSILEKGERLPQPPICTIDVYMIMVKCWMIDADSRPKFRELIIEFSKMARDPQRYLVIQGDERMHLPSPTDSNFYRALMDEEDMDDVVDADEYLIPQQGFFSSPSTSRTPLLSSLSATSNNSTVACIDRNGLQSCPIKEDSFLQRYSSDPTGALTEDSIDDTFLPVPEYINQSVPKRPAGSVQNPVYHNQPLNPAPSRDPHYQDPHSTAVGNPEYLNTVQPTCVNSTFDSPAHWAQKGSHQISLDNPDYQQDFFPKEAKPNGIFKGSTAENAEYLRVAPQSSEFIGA

Usually IC50 stands for the concentration that gives 50% inhibition. Consider `CC(C)NC(=S)NC(=O)Cc1ccccc1` [Compound 2a, N-(Isopropylcarbamothioyl)-2-phenylacetamide], for which the IC50 at 48 h in “In vitro cytotoxic assay” stood at 121 ± 11.3 µM. Besides, the IC50 turned out to be 34.57 ± 0.06 µM in data set [1], 57.85 ± 0.07 µM in data set [2], 26.8 ± 2.21 µM in data set [3] and 37.73 ± 0.08 µM in data set [4].
Taken in the same sequence, the figures for `Nc1ccccc1NC(=S)NC(=O)Cc1ccccc1` [Compound 2c, N-((2-Aminophenyl)carbamothioyl)-2-phenylacetamide] were 145 ± 14.9 µM, 27.81 ± 0.04 µM, 47.66 ± 0.04 µM, 25.44 ± 0.04 µM and 21.76 ± 0.08 µM.
For `O=C(Cc1ccccc1)NC(=S)Nc1cccc(O)c1` [Compound 2d, N-((3-Hydroxyphenyl)carbamothioyl)-2-phenylacetamide] the same measures were 158 ± 16.4 µM, 20.84 ± 0.04 µM, 34.77 ± 0.03 µM, 39.3 µM and 24.74 ± 0.08 µM.
Taken in the same sequence, the figures for `O=C(Cc1ccccc1)NC(=S)Nc1ccc([N+](=O)[O-])cc1Cl` [Compound 2e, N-((2-Chloro-4-nitrophenyl)carbamothioyl)-2-phenylacetamide] were 169 ± 17.4 µM, 25.96 ± 0.05 µM, 37.76 ± 0.05 µM, 40.56 ± 0.05 µM and 25.64 ± 0.08 µM.
`O=C(Cc1ccccc1)Nc1nc2ccccc2[nH]1` [Compound 3, N-(1H-Benzo[d]imidazol-2-yl)-2-phenylacetamide]: in “In vitro cytotoxic assay”, the IC50 at 48 h was 179 ± 18.8 µM. Also, the IC50 in data set [1] was 10.42 ± 0.05 µM; in data set [2], 37.73 ± 0.02 µM; in data set [3] it was 17.29 ± 0.03 µM; in data set [4], 6.59 ± 0.07 µM.
`CC(C)Nc1nnc(Cc2ccccc2)[nH]1` [Compound 5a, 5-Benzyl-N-isopropyl-4H-1,2,4-triazol-3-amine]: the IC50 turned out to be 250 ± 10 nM on EGFR^WT; 10.37 ± 0.04 µM in data set [1]; 35.66 ± 0.04 µM in data set [2]; 0.68 ± 0.01 nM with p53 ubiquitination; 16.49 ± 0.05 µM in data set [3]; 170 ± 50 nM against EGFR^T790M. In addition, the IC50 in data set [4] worked out at 5.42 ± 0.05 µM. In addition, half-maximal inhibition in the data set “In vitro cytotoxic assay” (IC50 at 48 h) was put at 175 ± 18.2 µM. The “SI (selectivity index) A-549” value in data set [1] is recorded as “SI = 16.86”. Moreover, the “SI (selectivity index) HepG-2” value in data set [2] is “SI = 4.90”. Besides, the “SI (selectivity index) PC-3” value in data set [3] is listed as “SI = 10.60”. The “SI (selectivity index) MCF-7” value in data set [4] is recorded as “SI = 32.26”.
With `Oc1cccc(Nc2nnc(Cc3ccccc3)[nH]2)c1` [Compound 5c, 3-((5-Benzyl-4H-1,2,4-triazol-3-yl)amino)phenol], the IC50 stood at 240 ± 300 nM against EGFR^WT; 12.3 ± 0.04 µM in data set [1]; 27.59 ± 0.04 µM in data set [2]; 18.44 ± 0.04 µM in data set [3]; 140 nM at EGFR^T790M; 4.33 ± 0.04 µM in data set [4]. The same compound yielded an IC50 at 48 h in the data set “In vitro cytotoxic assay” of 146 ± 16.1 µM. Besides, the “SI (selectivity index) A-549” value in data set [1] was “SI = 11.89”. The “SI (selectivity index) HepG-2” value in data set [2] is recorded as “SI = 5.23”. For the same compound, the “SI (selectivity index) PC-3” value in data set [3] is given as “SI = 7.93”. Besides, the “SI (selectivity index) MCF-7” value in data set [4] is reported as “SI = 33.79”.
As for `c1ccc(Cc2nc(Nc3nccs3)n(-c3ccccc3)n2)cc1` [Compound 6a, N-(3-Benzyl-1-phenyl-1H-1,2,4-triazol-5-yl)thiazol-2-amine], the IC50 on EGFR^WT turned out to be 180 ± 100 nM; in data set [1], 5.2 ± 0.03 µM; in data set [2], 10.48 ± 0.03 µM; in data set [3] it was 16.3 ± 0.09 µM; at EGFR^T790M, 120 ± 180 nM; in data set [4], 4.3 ± 0.04 µM. The IC50 at 48 h in “In vitro cytotoxic assay” was found to be 157 ± 16.9 µM. In addition, the “SI (selectivity index) A-549” value in data set [1] is “SI = 30.27”. Moreover, the “SI (selectivity index) HepG-2” value in data set [2] was “SI = 15.02”. Also, the “SI (selectivity index) PC-3” value in data set [3] is reported as “SI = 9.65”. The “SI (selectivity index) MCF-7” value in data set [4] was “SI = 36.61”.
`O=c1nc(Cc2ccccc2)[nH]c(Nc2nccs2)n1` [Compound 7, 4-Benzyl-6-(thiazol-2-ylamino)-1,3,5-triazin-2(5H)-one]: the IC50 at EGFR^WT came out at 220 ± 50 nM; in data set [1] it was 7.43 ± 0.04 µM; in data set [2], 29.75 ± 0.03 µM; in data set [3] it was 17.9 ± 0.03 µM; against EGFR^T790M, 180 ± 110 nM; in data set [4] it was 4.65 ± 0.07 µM. The IC50 at 48 h in the data set “In vitro cytotoxic assay” was found to be 165 ± 18.1 µM. Besides, the “folds less potency compared to erlotinib” value in data set [1] (A-549) is on record as around 2 folds.
Compound `CC(C)N=c1nc(Cc2ccccc2)[nH]c(=S)[nH]1` [Compound 8a, 6-Benzyl-4-(isopropylimino)-3,4-dihydro-1,3,5-triazine-2(1H)-thione] showed an IC50 at 48 h in the data set “In vitro cytotoxic assay” of 173 ± 18.9 µM. Further, in data set [1], the IC50 amounted to 25.46 ± 0.05 µM and the “SI (selectivity index) A-549” value is “SI = 6.81”. For the same compound, in data set [2], the concentration for half-maximal inhibition (IC50) was 59.84 ± 0.05 µM and the “SI (selectivity index) HepG-2” value is on record as “SI = 2.91”. In data set [3], the IC50 was 36.55 ± 0.03 µM and the “SI (selectivity index) PC-3” value was “SI = 4.74”. In data set [4], the IC50 turned out to be 13.75 ± 0.08 µM and the “SI (selectivity index) MCF-7” value is recorded as “SI = 12.61”.
As to `S=c1[nH]c(Cc2ccccc2)nc(=Nc2nccs2)[nH]1` [Compound 8b, 6-Benzyl-4-(thiazol-2-ylimino)-3,4-dihydro-1,3,5-triazine-2(1H)-thione], it took 197 ± 20.7 µM to reach half-maximal inhibition in the data set “In vitro cytotoxic assay” (IC50 at 48 h). In data set [1], the IC50 worked out at 37.21 ± 0.03 µM and the “SI (selectivity index) A-549” value was “SI = 5.28”. For the same compound, in data set [2], the IC50 turned out to be 60.48 ± 0.05 µM and the “SI (selectivity index) HepG-2” value is “SI = 3.25”. For the same compound, in data set [3], the IC50 stood at 42.56 ± 0.06 µM and the “SI (selectivity index) PC-3” value is on record as “SI = 4.62”. Besides, in data set [4], the half-inhibitory concentration (IC50) came out at 17.95 ± 0.04 µM and the “SI (selectivity index) MCF-7” value is “SI = 10.95”.
For the compound `Oc1cccc(N=c2nc(Cc3ccccc3)[nH]c(=S)[nH]2)c1` [Compound 8c, 6-Benzyl-4-((3-hydroxyphenyl)imino)-3,4-dihydro-1,3,5-triazine-2(1H)-thione], the IC50 at 48 h in the data set “In vitro cytotoxic assay” amounted to 189 ± 19.9 µM. In addition, in data set [1], the IC50 amounted to 8.29 ± 0.03 µM and the “SI (selectivity index) A-549” value was “SI = 22.78”. Further, in data set [2], the IC50 came out at 45.49 ± 0.04 µM and the “SI (selectivity index) HepG-2” value is “SI = 4.15”. In data set [3], the IC50 came to 32.48 ± 0.04 µM and the “SI (selectivity index) PC-3” value is “SI = 5.81”. Further, in data set [4], the IC50 amounted to 10.31 ± 0.04 µM and the “SI (selectivity index) MCF-7” value is reported as “SI = 18.32”.
Compound `O=[N+]([O-])c1ccc(N=c2nc(Cc3ccccc3)[nH]c(=S)[nH]2)c(Cl)c1` [Compound 8d, 6-Benzyl-4-((2-chloro-4-nitrophenyl)imino)-3,4-dihydro-1,3,5-triazine-2(1H)-thione] gave an IC50 at 48 h in “In vitro cytotoxic assay” of 179 ± 19 µM. In data set [1], the IC50 was found to be 9.5 ± 0.06 µM and the “SI (selectivity index) A-549” value is “SI = 18.85”. Further, in data set [2], the IC50 worked out at 47.86 ± 0.05 µM and the “SI (selectivity index) HepG-2” value is “SI = 3.74”. In addition, in data set [3], the IC50 came out at 39.55 ± 0.08 µM and the “SI (selectivity index) PC-3” value is listed as “SI = 4.52”. Also, in data set [4], the IC50 is 14.77 ± 0.05 µM and the “SI (selectivity index) MCF-7” value is on record as “SI = 12.12”.
Turning to `COc1cccc2c1C(=O)c1c(O)c3c(c(O)c1C2=O)C[C@@](O)(C(=O)CO)C[C@@H]3O[C@H]1C[C@H](N)[C@H](O)[C@H](C)O1` [DOX, doxorubicin, reference compound], in the data set “In vitro cytotoxic assay”, the IC50 at 48 h was 250 ± 26.6 µM. In addition, the results for the IC50 in data set [1], in data set [2] and in data set [3] were 8.2 ± 0.08 µM, 4.51 ± 0.26 µM and 8.11 ± 0.05 µM, respectively.
Consider `C#Cc1cccc(Nc2ncnc3cc(OCCOC)c(OCCOC)cc23)c1` [erlotinib, reference compound], for which, in “In vitro cytotoxic assay”, the IC50 at 48 h came to 45.8 ± 26.6 µM. Also, the values for the IC50 in data set [1] and in data set [3] were 3.76 ± 0.2 µM and 8.89 ± 0.6 µM, respectively.
